Assay results: patent US5559150A, “N,N-disulfonylated aminobenzene carboxlic acids and the use thereof as thrombin inhibitors” (3-Dimensional Pharmaceuticals, Inc., priority 1995, dated 1996)

Assays:
[1] = biological target: T1, Purified human α-thrombin (Homo sapiens, UniProt P00734); test: In vitro inhibition of purified thrombin (hydrolysis of peptide p-nitroanilide substrate); format: biochemical
T1 construct: Purified human α-thrombin; purchased Enzyme Research Laboratories Inc
Method: (§1) All assays are based on the ability of the test compound to inhibit the hydrolysis of a peptide p-nitroanilide substrate. In a typical experiment, substrate is prepared in DMSO, and diluted into an assay buffer consisting of 50 mM HEPES, 130 mM NaCl, pH 7.5. The final concentration for each of the substrates is listed below. All substrate concentrations are at least 10-fold lower than Km to insure inhibition is competitive. Test compounds are prepared as a 1 mg/ml solution in DMSO, and 3 additional 10-fold dilutions in DMSO are prepared. Enzyme solutions are prepared at the concentrations listed below in assay buffer.
(§2) In a typical IC50 determination, into each well of a 96 well plate is pipetted 280 uL of substrate solution, 10 μL of inhibitor solution, and the plate allowed to thermally equilibrate at 37° C. in a Molecular Devices Plate Reader for >10 minutes. Reactions were initiated by the addition of a 20 μL aliquot of enzyme, and the absorbance increase at 405 nm is recorded for 15 minutes. Data corresponding to less than 10% of the total substrate hydrolysis was used in the calculations. The ratio of the velocity (rate of the change in absorbance as a function of time) for a sample containing no inhibitor is divided by the velocity of a sample containing inhibitor, and is plotted as a function of inhibitor concentration. […]

Factor Xa = biological target: T2, Factor Xa (Homo sapiens, UniProt P00742); test: In vitro inhibition of purified Factor Xa (hydrolysis of peptide p-nitroanilide substrate); format: biochemical; conditions: Bz-Ile-Glu-Gly-Arg-pNa substrate; 10 nM Factor Xa; pH 7.5, 37° C.
T2 construct: purchased Enzyme Research Laboratories Inc
T2 sequence (P00742 235-488 limits assumed): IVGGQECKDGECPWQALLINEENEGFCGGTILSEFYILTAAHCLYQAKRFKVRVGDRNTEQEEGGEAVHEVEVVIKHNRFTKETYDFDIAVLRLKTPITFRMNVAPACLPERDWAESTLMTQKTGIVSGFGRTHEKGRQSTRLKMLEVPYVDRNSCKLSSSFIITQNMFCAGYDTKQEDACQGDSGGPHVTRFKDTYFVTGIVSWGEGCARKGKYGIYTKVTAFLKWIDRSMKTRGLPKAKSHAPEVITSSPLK
T2 sequence (P00742 41-179 partner limits assumed): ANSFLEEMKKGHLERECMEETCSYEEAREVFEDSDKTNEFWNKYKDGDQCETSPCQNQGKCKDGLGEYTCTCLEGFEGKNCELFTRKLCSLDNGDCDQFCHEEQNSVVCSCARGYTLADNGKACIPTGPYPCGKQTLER
Method: as §1
as §2, with “Data corresponding to less than 10% of the total substrate hydrolysis was used in the calculations.” left out
Factor Xa activity was assessed as the ability to hydrolyse the substrate Bz-Ile-Glu-Gly-Arg-pNa (obtained from Sigma Chemical Company, St Louis, Mo.). […]

- IC50 ([1]; Bz-Phe-Val-Arg-pNa substrate, 36 nM thrombin, pH 7.5, 37° C.): 0.8 µM
- IC50 (Factor Xa): 59 µM
Structure (SMILES): O=C(O)c1cccc(N(S(=O)(=O)c2ccc3ccccc3c2)S(=O)(=O)c2ccc3ccccc3c2)c1 [Example 4, 3-[Bis[(2-naphthalenyl)sulfonyl]amino]benzoic Acid]
- inhibition of thrombin, potency and selectivity (in words) ([1]; conclusion from Table 1, selectivity versus other serine proteases such as plasmin): selective and highly potent inhibitors of thrombin
